The results in this text go back to patent US7291469B2, “Mutant met and uses therefor” (The Regents of the University of California, priority 2004, dated 2007).

One assay has as its system Met gene expression. The experiment in a line: Met gene expression by semi-quantitative RT-PCR under hypoxia mimic. It counts as cell-based. Particulars: two canine OSA cell lines. An excerpt:
To evaluate the effects of hypoxia on Met gene expression, we cultured two different canine OSA cell lines in the presence of cobalt chloride, an agent that mimics hypoxia. […] Given the substantial data indicating a role of Met in a variety of human cancers, it is likely that dysregulation of Met will play a similar role in canine cancers.

The subject of assay [1] is NIH-3T3 cells stably transfected with canine Met constructs. The experiment in a line: Gap migration assay in NIH-3T3 cells stably transfected with canine Met constructs. The settings on record: R988C, M1251T, D544N, G966S Met lines; 50 ng/ml; 24 hours. It counts as cell-based. How it is done: Cells were allowed to grow to confluence in tissue culture, then defects were created manually to create a “gap” in the cells. The cells were then left in medium alone or treated with recombinant human HGF (rhHGF) at 50 ng/ml. Cells were also treated with a Met inhibitor in the absence or presence of rhHGF. Cultures were evaluated 24 hours later by staining the cells with crystal violet and digital imaging.

In a further assay the test system is Gab-1, Erk1/2, and Akt. The assay can be described thus: Phosphorylation of downstream signal transduction components Gab-1, Erk1/2 and Akt after rhHGF stimulation. Format: cell-based, canine. From the text: The activation of downstream signal transduction components Gab-1, Erk1/2, and Akt were then examined. […] It is possible that in these cases, other growth factor pathways contribute to this high level of basal phosphorylation.

Another assay has as its system canine Met. The experiment in a line: Met phosphorylation in canine tumor cell lines after rhHGF stimulation. Format: cell-based. How it is done:
It is possible that this mutation results in the basal phosphorylation of Met in this cell line.
To determine whether HGF stimulation of canine Met induces appropriate Met autophosphorylation and downstream signal transduction, Met expressing tumor cell lines were treated with recombinant human HGF and the phosphorylation of Met on several specific tyrosines as well as phosphorylation of downstream signaling components were evaluated. […] It was then necessary to determine whether all critical tyrosine residues were phosphorylated after rhHGF exposure, as it was possible that the recombinant human protein was only inducing partial or incomplete signal transduction. […] Although this could be attributed to autocrine HGF and HGFA production, the D17 cell line also has the D544N mutation.

In a further assay the test system is canine OSA cells. The experiment in a line: Scattering and migration of canine OSA cells under growth factor deprivation with HGF. It counts as cell-based. The settings on record: medium without fetal bovine serum, HGF added. From the text: To evaluate the ability of OSA cells to scatter and migrate, we cultured cells in medium containing fetal bovine serum or no fetal bovine serum (stressful condition), then stimulated with HGF. The OSA cells began to show evidence of morphology change (scattering) upon growth factor deprivation.

canine Met, sequence (Q75ZY9 25-308 limits assumed): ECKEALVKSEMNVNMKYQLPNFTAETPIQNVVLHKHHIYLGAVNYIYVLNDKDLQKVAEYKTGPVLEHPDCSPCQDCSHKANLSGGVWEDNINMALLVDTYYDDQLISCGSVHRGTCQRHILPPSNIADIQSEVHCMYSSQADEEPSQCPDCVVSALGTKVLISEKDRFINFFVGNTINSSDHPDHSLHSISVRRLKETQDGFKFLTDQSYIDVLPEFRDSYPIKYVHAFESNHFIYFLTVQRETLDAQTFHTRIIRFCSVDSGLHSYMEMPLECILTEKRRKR
canine Met, sequence (Q75ZY9 309-516 limits assumed): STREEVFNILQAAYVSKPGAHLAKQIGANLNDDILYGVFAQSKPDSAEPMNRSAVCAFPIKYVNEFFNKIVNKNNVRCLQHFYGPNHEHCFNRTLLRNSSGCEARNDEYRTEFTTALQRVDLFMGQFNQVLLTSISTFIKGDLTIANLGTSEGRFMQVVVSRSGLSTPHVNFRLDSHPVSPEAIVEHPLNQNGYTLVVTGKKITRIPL

Turning to `[Cl][Co][Cl]` [cobalt chloride], the Met gene expression result in the assay with Met gene expression is listed as “upregulation of Met gene expression”.

Regarding “rhHGF: recombinant human hepatocyte growth factor, the ligand for Met”, the “migration compared to NIH-3T3 expressing wild-type Met” value in assay [1] is given as “markedly increased”. In addition, in the assay with Gab-1, Erk1/2, and Akt (Mel 3 and Mel 8 cell lines), the “Erk and Akt phosphorylation” value was “inducible Erk and Akt phosphorylation”. Further, the Gab-1 phosphorylation entry in the assay with Gab-1, Erk1/2, and Akt (each of the canine cell lines tested) is “Gab-1 was phosphorylated”. For the same molecule, the “phosphorylation of Met tyrosines 1003, 1230/34/35, 1349 and 1365” value with canine Met (OSA8 canine OSA cell line) is on record as “all phosphorylated appropriately”. In the assay with canine Met (canine OSA cell lines), the “concentration of maximal stimulation of Met phosphorylation” value was found to be 50 ng/mL and the “phosphorylation of canine Met” value was “induced phosphorylation of canine Met in all cell lines tested in a dose dependent fashion”. In addition, the “morphology change (scattering)” value with canine OSA cells is recorded as “further enhanced”.
